Source: patent publication EP2951180B1, “2,6,7,8 SUBSTITUTED PURINES AS HDM2 INHIBITORS” (Merck Sharp & Dohme Corp., priority 2013, dated 2014)

Biological target: T1, HDM2 (Homo sapiens, UniProt Q00987)
T1 construct: Thioredoxin (N); made in house; host or cells: E. coli strain BL21(DE3)Rosetta
Test: FRET assay (HDM2 inhibition; method not described in this part)
Format: binding
Conditions: Table 1

T1 sequence (Q00987 17-125): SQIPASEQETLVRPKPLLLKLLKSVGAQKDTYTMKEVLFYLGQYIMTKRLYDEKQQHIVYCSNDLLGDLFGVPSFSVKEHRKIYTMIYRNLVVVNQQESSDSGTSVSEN

Row | Compound | IC50
1 | CC(C)c1ccnc(-c2nc3nc(C(=O)O)nc(N(C)[C@H](C)C4CCC4)c3n2Cc2ccc(C(F)(F)F)c(F)c2)c1 [Example 1.13, (R)-6-((1-cyclobutylethyl)(methyl)amino)-7-(3-fluoro-4-(trifluoromethyl)benzyl)-8-(4-isopropylpyridin-2-yl)-7H-purine-2-carboxylic acid] | 158 nM
2 | C[C@@H](Nc1nc(C(=O)O)nc2nc(-c3ccccn3)n(Cc3ccc(C(F)(F)F)cc3)c12)C1CCC1 [Example 1.16, 6-{[(1R)-1-cyclobutylethyl]amino}-8-pyridin-2-yl-7-[4-(trifluoromethyl)benzyl]-7H-purine-2-carboxylic acid] | 25.3 nM
3 | Cc1ccnc(-c2nc3nc(C(=O)O)nc(N[C@H](C)C4CCC4)c3n2Cc2ccc(C(F)(F)F)cc2)c1 [Example 1.17, 6-{[(1R)-1-cyclobutylethyl]amino}-8-(4-methylpyridin-2-yl)-7-[4-(trifluoromethyl)benzyl]-7H-purine-2-carboxylic acid] | 12.7 nM
4 | Cc1cccnc1-c1nc2nc(C(=O)O)nc(N[C@H](C)C3CCC3)c2n1Cc1ccc(C(F)(F)F)cc1 [Example 1.18] | 45.7 nM
5 | Cc1cccc(-c2nc3nc(C(=O)O)nc(N[C@H](C)C4CCC4)c3n2Cc2ccc(C(F)(F)F)cc2)n1 [Example 1.19] | 42.5 nM
6 | COc1ccc(-c2nc3nc(C(=O)O)nc(N[C@H](C)C4CCC4)c3n2Cc2ccc(C(F)(F)F)cc2)nc1 [Example 1.20, 6-{[(1R)-1-cyclobutylethyl]amino}-8-(5-methoxypyridin-2-yl)-7-[4-(trifluoromethyl)benzyl]-7H-purine-2-carboxylic acid] | 24.1 nM
7 | Cc1ccc(C)c(-c2nc3nc(C(=O)O)nc(N[C@H](C)C4CCC4)c3n2Cc2ccc(C(F)(F)F)cc2)n1 [Example 1.21, 6-{[(1R)-1-cyclobutylethyl]amino}-8-(3,6-dimethylpyridin-2-yl)-7-[4-(trifluoromethyl)benzyl]-7H-purine-2-carboxylic acid] | 27 nM
8 | CC(C)c1ccnc(-c2nc3nc(C(=O)O)nc(N[C@H](C)C4CCC4)c3n2Cc2ccc(C(F)(F)F)cc2)c1 [Example 1.22] | 4.22 nM
9 | COc1ccc(C)nc1-c1nc2nc(C(=O)O)nc(N[C@H](C)C3CCC3)c2n1Cc1ccc(C(F)(F)F)cc1 [Example 1.23, 6-{[(1R)-1-cyclobutylethyl]amino}-8-(3-methoxy-6-methylpyridin-2-yl)-7-[4-(trifluoromethyl)benzyl]-7H-purine-2-carboxylic acid] | 13.1 nM
10 | C[C@@H](Nc1nc(C(=O)O)nc2nc(-c3ccc(S(C)(=O)=O)cc3)n(Cc3ccc(C(F)(F)F)cc3)c12)C1CCC1 [Example 1.24, 6-{[(1R)-1-cyclobutylethyl]amino}-8-[4-(methylsulfonyl)phenyl]-7-[4-(trifluoromethyl)benzyl] - 7H-purine-2-carboxylic acid] | 112 nM
11 | Cc1cc2ncccc2cc1-c1nc2nc(C(=O)O)nc(N[C@H](C)C3CC3)c2n1Cc1ccc(C(F)(F)F)cc1 [Example 1.25, 6-{[(1R)-1-cyclopropylethyl]amino} -8-(7-methylquinolin-6-yl)-7-[4-(trifluoromethyl)benzyl]-7H-purine-2-carboxylic acid] | 1070 nM
12 | C[C@@H](Nc1nc(C(=O)O)nc2nc(-c3cc(-c4ccccc4)ccn3)n(Cc3ccc(C(F)(F)F)cc3)c12)C1CCC1 [Example 1.26, 6-{[(1R)-1-cyclobutylethyl]amino}-8-(4-phenylpyridin-2-yl)-7-[4-(trifluoromethyl)benzyl] - 7H-purine-2-carboxylic acid] | 12.1 nM
13 | C[C@@H](Nc1nc(C(=O)O)nc2nc(-c3cc(C(C)(C)O)ccn3)n(Cc3ccc(C(F)(F)F)cc3)c12)C1CCC1 [Example 1.27, 6-{[(1R)-1-cyclobutylethyl]amino}-8-[4-(1-hydroxy-1-methylethyl)pyridin-2-yl]-7-[4-(trifluoromethyl)benzyl]-7H-purine-2-carboxylic acid] | 9.41 nM
14 | CC(O)c1ccnc(-c2nc3nc(C(=O)O)nc(N[C@H](C)C4CCC4)c3n2Cc2ccc(C(F)(F)F)cc2)c1 (stereo partly drawn) [Example 1.28, 6-{[(1R)-1-cyclobutylethyl]amino}-8-[4-(1-hydroxyethyl)pyridin-2-yl]-7-[4-(trifluoromethyl)benzyl]-7H-purine-2-carboxylic acid] | 12.4 nM
15 | CCc1ccc(O)c(-c2nc3nc(C(=O)O)nc(N[C@H](C)C4CCC4)c3n2Cc2ccc(C(F)(F)F)cc2)c1 [Example 1.29, 6-{[(1R)-1-cyclobutylethyl]amino}-8-(5-ethyl-2-hydroxyphenyl)-7-[4-(trifluoromethyl)benzyl]-7H-purine-2-carboxylic acid] | 46.1 nM
16 | COCOc1ccc(C(C)C)cc1-c1nc2nc(C(=O)O)nc(N[C@H](C)C3CCC3)c2n1Cc1ccc(C(F)(F)F)cc1 [Example 1.30, 6-{[(1R)-1-cyclobutylethyl]amino}-8-[2-(methoxymethoxy)-5-(1-methylethyl)phenyl]-7-[4-(trifluoromethyl)benzyl]-7H-purine-2-carboxylic acid] | 54.4 nM
17 | CCc1ccc(OC)c(-c2nc3nc(C(=O)O)nc(N[C@H](C)C4CCC4)c3n2Cc2ccc(C(F)(F)F)cc2)c1 [Example 1.31, 6-{[(1R)-1-cyclobutylethyl]amino}-8-(5-ethyl-2-methoxyphenyl)-7-[4-(trifluoromethyl)benzyl]-7H-purine-2-carboxylic acid] | 18.7 nM
18 | CCOc1ccc(CC)cc1-c1nc2nc(C(=O)O)nc(N[C@H](C)C3CCC3)c2n1Cc1ccc(C(F)(F)F)cc1 [Example 1.32, 6-{[(1R)-1-cyclobutylethyl]amino}-8-(2-ethoxy-5-ethylphenyl)-7-[4-(trifluoromethyl)benzyl] - 7H-purine-2-carboxylic acid] | 23.6 nM
19 | CCOc1ccc(C(F)(F)F)cc1-c1nc2nc(C(=O)O)nc(N[C@H](C)C3CCC3)c2n1Cc1ccc(C(F)(F)F)cc1 [Example 1.33, 6-{[(1R)-1-cyclobutylethyl]amino}-8-[2-ethoxy-5-(trifluoromethyl)phenyl]-7-[4-(trifluoromethyl)benzyl] - 7H-purine-2-carboxylic acid] | 19.8 nM
20 | COc1ccc(C(F)(F)F)cc1-c1nc2nc(C(=O)O)nc(N[C@H](C)C3CCC3)c2n1Cc1ccc(C(F)(F)F)cc1 [Example 1.35, 6-{[(1R)-1-cyclobutylethyl]amino}-8-[2-methoxy-5-(trifluoromethyl)phenyl]-7-[4-(trifluoromethyl)benzyl] - 7H-purine-2-carboxylic acid] | 27.8 nM
21 | CCc1ccc(OCOC)c(-c2nc3nc(C(=O)O)nc(N[C@H](C)C4CCC4)c3n2Cc2ccc(C(F)(F)F)cc2)c1 [Example 1.36, 6-{[(1R)-1-cyclobutylethyl]amino}-8-[5-ethyl-2-(methoxymethoxy)pheny 1]-7-[4-(trifluoromethyl)benzyl]-7H-purine-2-carboxylic acid] | 23.1 nM
22 | C[C@@H](Nc1nc(C(=O)O)nc2nc(-c3cccc(C(N)=O)c3)n(Cc3ccc(C(F)(F)F)cc3)c12)C1CCC1 [Example 1.37, 8-(3-carbamoylphenyl)-6-{[(1R)-1-cyclobutylethyl]amino}-7-[4-(trifluoromethyl)benzyl]-7H-purine-2-carboxylic acid] | 49.4 nM
